Key:
[1] = target: T1, recombinant human B3GALNT2 (Homo sapiens, UniProt Q8NCR0); test: phosphatase coupled universal glycosyltransferase assay, B3GALNT2; format: biochemical; details: 0.4 mM nucleotide sugar donor, 2 mM acceptor benzyl-β-GlcNAc, 1 μg B3GALNT2, 37° C., 20 minutes; compared with UDP-GalNAc (FIG. 8)
T1 construct: purchased R&D Systems and/or Bio-Techne
T1 sequence (Q8NCR0 1-500): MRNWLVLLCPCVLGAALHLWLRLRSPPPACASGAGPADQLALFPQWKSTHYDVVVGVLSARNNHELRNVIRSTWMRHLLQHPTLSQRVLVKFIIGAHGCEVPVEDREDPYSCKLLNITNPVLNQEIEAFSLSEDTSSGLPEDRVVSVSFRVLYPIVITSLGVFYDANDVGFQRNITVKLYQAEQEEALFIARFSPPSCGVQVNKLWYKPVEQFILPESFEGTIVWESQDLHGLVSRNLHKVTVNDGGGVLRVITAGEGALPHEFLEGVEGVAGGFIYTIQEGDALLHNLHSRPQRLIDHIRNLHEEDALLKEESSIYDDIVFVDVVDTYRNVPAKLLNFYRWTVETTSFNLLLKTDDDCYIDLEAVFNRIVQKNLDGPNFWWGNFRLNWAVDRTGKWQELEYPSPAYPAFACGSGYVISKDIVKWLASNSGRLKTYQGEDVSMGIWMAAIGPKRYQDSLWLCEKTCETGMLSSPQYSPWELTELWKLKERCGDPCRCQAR
Method: (§1) Using a phosphatase coupled universal glycosyltransferase assay, an analysis of the activity of B3GALNT2 and OGT on regular nucleotide sugar as compared to azido nucleotide sugar was performed. For the B3GALNT2 assay, 0.4 mM nucleotide sugar donor (UDP-GalNAc or UDP-GalNAz), 2 mM of acceptor substrate benzyl-β-GlcNAc, and 0.1 μg of coupling phosphatase 1 were combined with 1 μg of B3GALNT2 in 50 μL of assay buffer of 25 mM Tris at pH 7.5, 10 mM MnCl2 and 10 mM CaCl2 at 37° C. for 20 minutes. For the OGT assay, 0.4 mM nucleotide sugar donor (UDP-GlcNAc or UDP-GlcNAz), 0.2 mM of acceptor OGT substrate, and 0.1 μg of coupling phosphatase 1 were combined with 2.5 μg of OGT in 50 μL of assay buffer of 25 mM Tris at pH 7.5, 10 mM MnCl2 and 10 mM CaCl2 at 37° C. for 20 minutes. Both assays were performed according to the Universal Glycosyltransferase Assay Kit from R&D Systems®. FIG. 8 is a bar graph of the activity of B3GALNT2 and OGT on regular nucleotide sugars compared to azido nucleotide sugars.

[2] = target: T2, recombinant human O-GlcNAc transferase (OGT) (Homo sapiens, UniProt O15294); test: phosphatase coupled universal glycosyltransferase assay, OGT; format: biochemical; details: 0.4 mM nucleotide sugar donor, 0.2 mM acceptor OGT substrate, 2.5 μg OGT, 37° C., 20 minutes (FIG. 8)
T2 construct: purchased R&D Systems and/or Bio-Techne
T2 sequence (O15294 1-1046): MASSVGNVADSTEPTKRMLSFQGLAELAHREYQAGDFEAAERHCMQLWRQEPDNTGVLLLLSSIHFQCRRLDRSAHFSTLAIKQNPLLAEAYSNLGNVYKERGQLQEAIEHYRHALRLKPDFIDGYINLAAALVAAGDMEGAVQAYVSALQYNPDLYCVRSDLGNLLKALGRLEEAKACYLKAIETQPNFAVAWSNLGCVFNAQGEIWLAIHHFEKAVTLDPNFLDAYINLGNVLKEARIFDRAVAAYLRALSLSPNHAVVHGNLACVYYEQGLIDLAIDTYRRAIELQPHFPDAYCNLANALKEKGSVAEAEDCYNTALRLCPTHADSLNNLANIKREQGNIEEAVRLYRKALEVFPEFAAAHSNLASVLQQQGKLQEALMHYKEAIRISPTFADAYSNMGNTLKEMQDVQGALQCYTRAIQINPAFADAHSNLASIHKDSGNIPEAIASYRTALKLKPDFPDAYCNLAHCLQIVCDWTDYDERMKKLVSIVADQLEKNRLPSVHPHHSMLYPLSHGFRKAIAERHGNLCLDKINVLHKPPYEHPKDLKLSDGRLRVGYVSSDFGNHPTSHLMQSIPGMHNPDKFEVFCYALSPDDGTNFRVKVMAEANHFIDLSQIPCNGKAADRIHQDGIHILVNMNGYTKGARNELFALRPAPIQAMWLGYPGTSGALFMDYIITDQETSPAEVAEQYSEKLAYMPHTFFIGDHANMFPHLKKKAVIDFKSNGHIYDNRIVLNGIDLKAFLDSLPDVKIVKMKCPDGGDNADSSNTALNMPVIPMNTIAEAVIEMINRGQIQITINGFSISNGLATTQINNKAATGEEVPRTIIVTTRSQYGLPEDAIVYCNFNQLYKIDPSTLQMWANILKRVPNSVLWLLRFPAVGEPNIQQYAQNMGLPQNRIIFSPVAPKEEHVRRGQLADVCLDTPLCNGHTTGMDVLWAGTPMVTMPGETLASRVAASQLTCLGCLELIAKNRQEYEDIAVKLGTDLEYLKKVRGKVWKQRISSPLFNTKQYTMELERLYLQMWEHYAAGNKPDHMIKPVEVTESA
Method: as §1

Q: How did the “activity of B3GALNT2 on azido nucleotide sugar compared to regular nucleotide sugar” value [1] turn out when `[N-]=[N+]=NCC(=O)N[C@H]1[C@@H](OP(=O)(O)OP(=O)(O)OC[C@H]2O[C@@H](n3ccc(=O)[nH]c3=O)[C@H](O)[C@@H]2O)O[C@H](CO)[C@H](O)[C@@H]1O` [UDP-GalNAz] was run?
A: more active on UDP-GalNAz than on UDP-GalNAc

Q: How did the “activity of OGT on azido nucleotide sugar compared to regular nucleotide sugar” value [2] turn out when `CC(=O)N[C@H]1[C@@H](OP(=O)(O)OP(=O)(O)OC[C@H]2O[C@@H](n3ccc(=O)[nH]c3=O)[C@H](O)[C@@H]2O)O[C@H](CO)[C@@H](O)[C@@H]1O` [UDP-GlcNAc] was run?
A: equally active

Q: How did the “activity of OGT on azido nucleotide sugar compared to regular nucleotide sugar” value [2] turn out when `[N-]=[N+]=NCC(=O)N[C@H]1[C@@H](OP(=O)(O)OP(=O)(O)OC[C@H]2O[C@@H](n3ccc(=O)[nH]c3=O)[C@H](O)[C@@H]2O)O[C@H](CO)[C@@H](O)[C@@H]1O` [UDP-GlcNAz] was run?
A: equally active

From patent US20210109103A1, “METHODS AND KITS FOR DETECTING O-GlcNAc SITES USING B3GALNT2 AND OGT” (BIO-TECHNE CORPORATION, priority 2018, published 2021)
